This experiment relates to S. aureus (ATCC 29213). Briefly: MICs of compound having Formula IV and ciprofloxacin alone and in combination. It counts as cell-based. Particulars: against S. aureus; alone. The procedure:
Compositions having various combinations of concentrations of compound having Formula IV and cirprofloxacin were tested systematically against S. aureus, P. aeruginosa, and E. coli.

For the compound `O=C(O)c1cn(C2CC2)c2cc(N3CCNCC3)c(F)cc2c1=O` [Ciprofloxacin, ciprofloxacin], the effectiveness in words result was “effective”.

(Values after patent US8173640B1, “Compositions and methods for treating, reducing, ameliorating, or preventing infections” (Bausch & Lomb Incorporated, priority 2007, dated 2012).)
